Data: patent US8138211B2, “Isothiazolyloxyphenylamidines and their use as fungicides” (Bayer Cropscience AG, priority 2009, dated 2012)
Where two headings read alike, the source gives them in different places.

Experiments:
[1] = logP by HPLC on reversed-phase columns (C18), EEC Directive 79/831 Annex V.A8; format: physicochemical
Experimental: The logP values were measured in accordance with EEC Directive 79/831 Annex V.A8 by HPLC (High Performance Liquid Chromatography) on reversed-phase columns (C18), using the method below: ^[a] The determination was carried out in the acidic range at pH 2.3 using the mobile phases 0.1% aqueous phosphoric acid and acetonitrile linear gradient from 10% acetonitrile to 95% acetonitrile. ^[b] The LC-MS determination in the acidic range was carried out at pH 2.7 using the mobile phases 0.1% aqueous formic acid and acetonitrile (comprising 0.1% formic acid) linear gradient from 10% acetonitrile to 95% acetonitrile ^[c] The LC-MS determination in the neutral range was carried out at pH 7.8 using the mobile phases 0.001 molar ammonium bicarbonate solution and acetonitrile linear gradient from 10% acetonitrile to 95% acetonitrile. Calibration was carried out using unbranched alkan-2-ones (having 3 to 16 carbon atoms) with known logP values (determination of the logP values by the retention times using linear interpolation between two successive alkanones).

Cochliobolus miyabeanus = assay: Cochliobolus test (rice)/protective; settings: active compound concentration of 250 ppm, protective, evaluation 4 days after inoculation
Experimental: • Solvent: 28.5 parts by weight of acetone • Emulsifier: 1.5 parts by weight of alkylaryl polyglycol ether
One day after the treatment, the plants are inoculated with an aqueous spore suspension of Cochliobolus miyabeanus. The plants are then placed in a greenhouse at 100% relative atmospheric humidity and 25° C.
Evaluation is carried out 4 days after the inoculation.

Pyricularia oryzae = format: in vivo; settings: active compound concentration of 250 ppm; rice, protective; evaluation 7 days after inoculation
[2] = reversed-phase HPLC column (C18), LC-MS, acidic range pH 2.7, 0.1% aqueous formic acid and acetonitrile, read-out: logP(HCO2H)

SMILES	chromatographic logP ([1]; pH 2.7)	other results
Cc1cc(Oc2cc(-c3ccccc3)ns2)c(C)cc1N [2,5-dimethyl-4-[(3-phenylisothiazol-5-yl)oxy]aniline]	3.6	–
Clc1snc(-c2ccccc2)c1Cl [4,5-dichloro-3-phenylisothiazole]	4.44	–
Cc1cc(Oc2snc(-c3ccccc3)c2Br)c(Cl)cc1N [4-[(4-bromo-3-phenylisothiazol-5-yl)oxy]-5-chloro-2-methylaniline]	4.41	–
Cc1cc(Oc2snc(-c3ccccc3)c2Cl)c(C)cc1N [4-[(4-chloro-3-phenylisothiazol-5-yl)oxy]-2,5-dimethylaniline]	4.22	–
Nc1snc(-c2ccccc2)c1Br [4-bromo-3-phenylisothiazol-5-amine]	–	chromatographic logP [1, 2]: 2.26
Clc1snc(-c2ccccc2)c1Br [4-bromo-5-chloro-3-phenylisothiazole]	–	chromatographic logP [1, 2]: 4.41
Nc1snc(-c2ccccc2)c1Cl [4-chloro-3-phenylisothiazol-5-amine]	–	chromatographic logP [1, 2]: 2.21
Cc1cc(Oc2snc(Cc3ccc(Cl)cc3)c2C#N)c(C)cc1N [5-(4-amino-2,5-dimethylphenoxy)-3-(4-chlorobenzyl)isothiazole-4-carbonitrile]	4.03	–
N#Cc1c(Cc2ccc(Cl)cc2)nsc1N [5-amino-3-(4-chlorobenzyl)isothiazole-4-carbonitrile]	–	chromatographic logP [1, 2]: 2.4
CC(C)(C)c1nsc(N)c1C#N [5-amino-3-tert-butylisothiazole-4-carbonitrile]	–	chromatographic logP [1, 2]: 2.4
N#Cc1c(Cc2ccc(Cl)cc2)nsc1Cl [5-chloro-3-(4-chlorobenzyl)isothiazole-4-carbonitrile]	3.87	–
Clc1cc(-c2ccccc2)ns1 [5-chloro-3-phenylisothiazole]	3.82	–
CCCN(C)/C=N/c1cc(C)c(Oc2snc(C(C)(C)C)c2C#N)cc1C [No. 4, N′-{4-[(3-tert-butyl-4-cyano-1,2-thiazol-5-yl)oxy]-2,5-dimethylphenyl}-N-methyl-N-propylimidoformamide]	2.19	–
CCN(C)/C=N/c1cc(C)c(Oc2snc(Cc3ccc(Cl)cc3)c2C#N)cc1C [No. 27, N′-(4-{[3-(4-chlorobenzyl)-4-cyano-1,2-thiazol-5-yl]oxy}-2,5-dimethylphenyl)-N-ethyl-N-methylimidoformamide]	2.39	–
CCN(C)/C=N/c1cc(C)c(Oc2cc(-c3ccccc3)ns2)cc1C [No. 43, N′-{2,5-dimethyl-4-[(3-phenyl-1,2-thiazol-5-yl)oxy]phenyl}-N-ethyl-N-methylimidoformamide]	2.11	–
CCN(C)/C=N/c1cc(C)c(Oc2snc(-c3ccccc3)c2Cl)cc1C [No. 48, N′-{4-[(4-chloro-3-phenyl-1,2-thiazol-5-yl)oxy]-2,5-dimethylphenyl}-N-ethyl-N-methylimidoformamide]	2.25	–
CCN(C)/C=N/c1cc(Cl)c(Oc2snc(-c3ccccc3)c2Br)cc1C [No. 54, N′-{4-[(4-bromo-3-phenyl-1,2-thiazol-5-yl)oxy]-5-chloro-2-methylphenyl}-N-ethyl-N-methylimidoformamide]	2.26	–
CCN(C)C=Nc1cc(C)c(Oc2snc(C(C)(C)C)c2C#N)cc1C [compound 6]	–	efficacy (Cochliobolus miyabeanus): ≥ 80%; efficacy (Pyricularia oryzae): ≥ 80%
